Assay results as given in ChEMBL document CHEMBL1146432, “Bengamides and Related New Amino Acid Derivatives from the New Caledonian Marine Sponge Jaspis carteri” (J Nat Prod, 1997).
Activity calls are given as the source filed them. No cut-off for these calls is given here.

Each compound was assayed on Candida (assay: Antifungal activity against Candida at 100 ug/mL).
Type: functional, organism-based

| SMILES | Activity |
| --- | --- |
| CCCCCCCCCCCCCCC(=O)O[C@H]1CC[C@H](NC(=O)[C@H](OC)[C@H](O)[C@@H](O)[C@H](O)/C=C/C(C)C)C(=O)NC1 | inactive |
| CCCCCCCCCCCCCC(=O)O[C@H]1CC[C@H](NC(=O)[C@H](OC)[C@H](O)[C@@H](O)[C@H](O)/C=C/C(C)C)C(=O)N(C)C1 | inactive |
| CCCCCCCCCCCCCCC(=O)O[C@H]1CC[C@H](NC(=O)[C@H](OC)[C@H](O)[C@@H](O)[C@H](O)/C=C/C(C)C)C(=O)N(C)C1 | inactive |
| CCCCCCCCCCCCCC(=O)O[C@H]1CC[C@H](NC(=O)[C@H](OC)[C@H](O)[C@@H](O)[C@H](O)/C=C/C(C)C)C(=O)NC1 | inactive |
| CCCCCCCCCCCCCC(=O)O[C@H]1CC[C@H](NC=O)C(=O)N(C)C1 | inactive |
| CCCCCCCCCCCCC(=O)O[C@H]1CC[C@H](NC(=O)[C@H](OC)[C@H](O)[C@@H](O)[C@H](O)/C=C/C(C)C)C(=O)NC1 | inactive |
| CO[C@H]1C(=O)O[C@@H]([C@H](O)/C=C/C(C)C)[C@H]1O | inactive |
| CCCCCCCCCCCCC(=O)O[C@H]1CC[C@H](NC(=O)[C@H](OC)[C@H](O)[C@@H](O)[C@H](O)/C=C/C(C)C)C(=O)N(C)C1 | inactive |
